From US8394825B2, “Compound” (Sterix Limited, priority 2007, dated 2013) come the findings set out here.

By melting point is commonly meant the temperature of the solid-liquid transition. Compound `COc1cc2c(cc1O)C(OC)CN(Cc1cc(OC)c(OC)c(OC)c1)C2` (centres unmarked) [F33, 4,7-Dimethoxy-2-(3,4,5-trimethoxybenzyl)-1,2,3,4-tetrahydro-isoquinolin-6-ol] registered a melting point of 51 to 54 °C.
Compound `CCOC1CN(Cc2ccccc2OC)Cc2cc(OC)c(O)cc21` (centres unmarked) [F34, 4-Ethoxy-7-methoxy-2-(2-methoxybenzyl)-1,2,3,4-tetrahydroisoquinolin-6-ol] gave a melting point of 101 to 102 °C.
For `CCOC1CN(Cc2cccc(OC)c2)Cc2cc(OC)c(O)cc21` (centres unmarked) [F35, 4-Ethoxy-7-methoxy-2-(3-methoxy-benzyl)-1,2,3,4-tetrahydroisoquinolin-6-ol], the melting point is 134 to 135 °C.
Under `CCOC1CN(Cc2ccc(OC)cc2)Cc2cc(OC)c(O)cc21` (centres unmarked) [F36, 4-Ethoxy-7-methoxy-2-(4-methoxybenzyl)-1,2,3,4-tetrahydroisoquinolin-6-ol] stands 154 to 157 °C.
Turning to `CCOC1CN(Cc2cc(OC)c(OC)c(OC)c2)Cc2cc(OC)c(O)cc21` (centres unmarked) [F37, 4-Ethoxy-7-methoxy-2-(3,4,5-trimethoxybenzyl)-1,2,3,4-tetrahydroisoquinolin-6-ol], the melting point was in the range of 94 to 96 °C.
In turn, `COc1cc2c(cc1OCc1ccccc1)CCN(Cc1cccc([N+](=O)[O-])c1)C2` [compound 10, 6-Benzyloxy-7-methoxy-2-(3-nitrobenzyl)-1,2,3,4-tetrahydroisoquinoline] registered a melting point of 109 to 110 °C.
`COc1cc2c(cc1OCc1ccccc1)CCN(Cc1cccnc1)C2` [compound 11, 6-Benzyloxy-7-methoxy-2-(pyridin-3-ylmethyl)-1,2,3,4-tetrahydroisoquinoline]: the melting point fell in the range of 78 to 79 °C.
`COc1cc2c(cc1OCc1ccccc1)CCN(Cc1ccccn1)C2` [compound 12, 6-Benzyloxy-7-methoxy-2-(pyridin-2-ylmethyl)-1,2,3,4-tetrahydroisoquinoline]: the melting point was 73 to 74 °C.
Turning to `COc1cc2c(cc1OCc1ccccc1)CCN(Cc1ccncc1)C2` [compound 13, 6-Benzyloxy-7-methoxy-2-(pyridin-4-ylmethyl)-1,2,3,4-tetrahydroisoquinoline], the melting point was in the range of 125 to 126 °C.
Under `COc1ccc(CCN2CCc3cc(OCc4ccccc4)c(OC)cc3C2)cc1` [compound 14, 6-Benzyloxy-7-methoxy-2-(4-methoxyphenethyl)-1,2,3,4-tetrahydroisoquinoline] stands 88 to 89 °C.
In turn, `COc1ccc(C(=O)CN2CCc3cc(OCc4ccccc4)c(OC)cc3C2)cc1OC` [compound 15, 6-Benzyloxy-2-(2-(3,4-dimethoxyphenyl)-2-oxoethyl)-7-methoxy-1,2,3,4-tetrahydroisoquinoline] came in with a melting point of 126 to 127 °C.
As to `COc1ccc(CN2CCc3cc(OCc4ccccc4)c(OC)cc3C2)cc1OC` [compound 18, 6-Benzyloxy-7-methoxy-2-(3,4-dimethoxybenzyl)-1,2,3,4-tetrahydroisoquinoline], the melting point was in the range of 98 to 99 °C.
Then `COc1cc2c(cc1OCc1ccccc1)CCN(Cc1cccc(O)c1)C2` [compound 30, 6-Benzyloxy-2-(3-hydroxybenzyl)-7-methoxy-1,2,3,4-tetrahydroisoquinoline], with 78 to 79 °C; and `COc1cc2c(cc1OCc1ccccc1)CCN(Cc1cccc(NC(C)=O)c1)C2` [compound 35, 2-(3-Acetamidobenzyl)-6-(benzyloxy)-7-methoxy-1,2,3,4-tetrahydroisoquinoline], with 63 to 66 °C; and `COc1cc2c(cc1OCc1ccccc1)CCN(Cc1cccc(NS(C)(=O)=O)c1)C2` [compound 36, 6-(Benzyloxy)-2-(3-methanesulfonylaminobenzyl)-7-methoxy-1,2,3,4-tetrahydroisoquinoline], with 132 to 133 °C.
In the case of `COc1cccc(CN2CCc3cc(O)ccc3C2)c1` [compound 37, 6-Hydroxy-2-(3-methoxybenzyl)-1,2,3,4-tetrahydroisoquinoline], the melting point is 223 to 224 °C.
Under `COc1ccc(CCN2CCc3cc(O)c(OC)cc3C2)cc1` [compound 46, 6-Hydroxy-7-methoxy-2-(4-methoxyphenethyl)-1,2,3,4-tetrahydroisoquinoline] stands 170 to 171 °C; under `COc1cc2c(cc1O)CCN(Cc1cccnc1)C2` [compound 47, 6-Hydroxy-7-methoxy-2-(pyridin-3-ylmethyl)-1,2,3,4-tetrahydroisoquinoline], 165 to 166 °C.
As for `COc1cc2c(cc1O)CCN(Cc1ccccn1)C2` [compound 48, 6-Hydroxy-7-methoxy-2-(pyridin-2-ylmethyl)-1,2,3,4-tetrahydroisoquinoline], the melting point lay within 137 to 138 °C.
Then `COc1cc2c(cc1O)CCN(Cc1cccc(OC(C)=O)c1)C2` [compound 51, 6-Hydroxy-7-methoxy-2-(3-acetoxybenzyl)-1,2,3,4-tetrahydroisoquinoline], with 120 to 122 °C.
`COc1cc2c(cc1O)CCN(Cc1cccc(NS(C)(=O)=O)c1)C2` [compound 52, 6-Hydroxy-7-methoxy-2-(3-methanesulfonylaminobenzyl)-1,2,3,4-tetrahydroisoquinoline]: the melting point was 99 to 101 °C.
`COc1cc2c(cc1O)CCN(CC(=O)c1ccc(OC)c(OC)c1)C2` [compound 53, 2-(2-(3,4-Dimethoxyphenyl)-2-oxoethyl)-6-hydroxy-7-methoxy-1,2,3,4-tetrahydroisoquinoline] showed a melting point of 149 to 150 °C.
Then `COc1cc2c(cc1O)CCN(Cc1cccc(C(C)=O)c1)C2` [compound 62, 6-Hydroxy-7-methoxy-2-(3-acetylbenzyl)-1,2,3,4-tetrahydroisoquinoline], with 132 to 134 °C.
Turning to `COc1cc2c(cc1OS(N)(=O)=O)CCN(Cc1cccc(NS(C)(=O)=O)c1)C2` [compound 88, 7-Methoxy-2-(3-(methylsulfonamido)benzyl)-1,2,3,4-tetrahydroisoquinolin-6-yl sulfamate], the melting point lay in the range of 151 to 152 °C.
For the compound `COc1cc2c(cc1OCc1ccccc1)CCN(C(=O)c1cc(OC)c(OC)c(OC)c1)C2` [compound 111, 6-Benzyloxy-7-methoxy-2-(3,4,5-trimethoxybenzoyl)-1,2,3,4-tetrahydroisoquinoline], the melting point was in the range of 63 to 64 °C.
Take `COc1cccc(C(=O)N2CCc3cc(OCc4ccccc4)c(OC)cc3C2=O)c1` [compound 131, 6-Benzyloxy-7-methoxy-2-(3-methoxybenzoyl)-3,4-dihydro-2H-isoquinoline-1-one]: the melting point lay in the range of 141 to 143 °C.
Turning to `COc1cc(OC)cc(C(=O)N2CCc3cc(OCc4ccccc4)ccc3C2=O)c1` [compound 132, 6-Benzyloxy-2-(3,5-dimethoxybenzoyl)-3,4-dihydro-2H-isoquinoline-1-one], the melting point lay in the range of 158 to 159 °C.
As for `COc1cc(OC)cc(C(=O)N2CCc3cc(O)ccc3C2=O)c1` [compound 137, 2-(3,5-Dimethoxybenzoyl)-6-hydroxy-3,4-dihydro-2H-isoquinoline-1-one], the melting point fell in the range of 178 to 179 °C.
Turning to `COc1cc2c(cc1O)CC(C)N(Cc1cc(OC)c(OC)c(OC)c1)C2` (centres unmarked) [compound 219, 2-(3,4,5-Trimethoxybenzyl)-1,2,3,4-tetrahydro-7-methoxy-3-methylisoquinolin-6-ol], the melting point was in the range of 127 to 132 °C.
